Values of other authors, collected in patent publication US10245273B2, “Oral pharmaceutical products and methods of use combining testosterone esters with hypolipidemic agents” (Clarus Therapeutics, Inc., priority 2013, dated 2019).

Q: For Cc1ccc(C)c(OCCCC(C)(C)C(=O)O)c1 [gemfibrozil], which “Subjects with a primary event” value (600 mg twice daily for 5 years (placebo 21.7%)) is on record?
A: The value was 17.3%.

Q: What about the “Reduction in CHD events / relative risk reduction of primary outcome (nonfatal myocardial infarction or death of cardiac origin)” value (600 mg twice daily, median follow-up 5.1 years, vs placebo) of the same compound?
A: The value was 22%.

Q: What about the “Increase in numbers of small HDL particles” value (in vivo) of the same compound?
A: The value was 21%.

Q: What about the “Increase in total HDL particles” value (in vivo) of the same compound?
A: The value was 10%.

Q: What about the “Relative risk reduction for combined cardiac events (nonfatal MI, death from coronary causes or stroke)” value (vs placebo) of the same compound?
A: The value was 24%.
